# Measured values taken from paper PMC12769732 (Nature Communications, 2025).
# Like-named read-outs stand apart in the source and are kept apart here.
# Key:
# SERT [1] = settings: read-out: reported equilibrium dissociation constant (KD) for SERT; cited from earlier work
# SERT [2] = settings: ref 75 (El-Kasaby A, et al.); cited from earlier work
# DAT [3] = test: Reported inhibition of DAT; format: biochemical; settings: relative to tesofensine
# DAT WT = DAT WT (Homo sapiens, UniProt Q01959); test: [3H]Dopamine transport assay, wild-type DAT; format: cell-based
# DAT F326A = DAT F326A (Homo sapiens, UniProt Q01959, F326A); test: [3H]Dopamine transport assay, DAT F326A mutant; format: cell-based; settings: for IC50: IC50 of [3H]dopamine uptake, F326A mutant of DAT, HEK-293F cells, n = 3
# DAT S422A = DAT S422A (Homo sapiens, UniProt Q01959, S422A); test: [3H]Dopamine transport assay, DAT S422A mutant; format: cell-based
# DAT [4] = settings: cited from earlier work
# NET = settings: cited from earlier work
# SERT [5] = settings: cited from earlier work
# DAT V152A = DAT V152A (Homo sapiens, UniProt Q01959, V152A); test: [3H]Dopamine transport assay, DAT V152A mutant; format: cell-based
# DAT [6] = molecular target: DAT (Homo sapiens, UniProt Q01959); settings: close analog of nefazodone; no reference given; cited from earlier work
# DAT (Homo sapiens, UniProt Q01959), sequence (Q01959 whole entry): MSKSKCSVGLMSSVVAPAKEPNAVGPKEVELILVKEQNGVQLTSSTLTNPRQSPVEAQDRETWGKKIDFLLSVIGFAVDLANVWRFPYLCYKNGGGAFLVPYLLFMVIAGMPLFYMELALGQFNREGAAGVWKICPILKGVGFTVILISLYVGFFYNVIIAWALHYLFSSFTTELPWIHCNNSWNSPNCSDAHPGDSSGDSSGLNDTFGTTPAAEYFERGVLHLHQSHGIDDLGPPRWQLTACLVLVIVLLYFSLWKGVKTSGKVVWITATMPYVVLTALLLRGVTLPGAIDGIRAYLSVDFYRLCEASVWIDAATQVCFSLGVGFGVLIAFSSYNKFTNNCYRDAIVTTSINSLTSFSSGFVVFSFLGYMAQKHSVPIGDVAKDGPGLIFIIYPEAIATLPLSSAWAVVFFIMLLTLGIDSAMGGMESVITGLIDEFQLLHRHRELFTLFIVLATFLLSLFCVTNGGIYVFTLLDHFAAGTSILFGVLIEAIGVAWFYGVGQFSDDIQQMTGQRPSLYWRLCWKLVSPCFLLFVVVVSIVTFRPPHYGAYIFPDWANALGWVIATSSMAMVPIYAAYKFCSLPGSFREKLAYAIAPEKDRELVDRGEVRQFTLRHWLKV
# DAT F326A, sequence (Q01959 57-620 F326A limits assumed): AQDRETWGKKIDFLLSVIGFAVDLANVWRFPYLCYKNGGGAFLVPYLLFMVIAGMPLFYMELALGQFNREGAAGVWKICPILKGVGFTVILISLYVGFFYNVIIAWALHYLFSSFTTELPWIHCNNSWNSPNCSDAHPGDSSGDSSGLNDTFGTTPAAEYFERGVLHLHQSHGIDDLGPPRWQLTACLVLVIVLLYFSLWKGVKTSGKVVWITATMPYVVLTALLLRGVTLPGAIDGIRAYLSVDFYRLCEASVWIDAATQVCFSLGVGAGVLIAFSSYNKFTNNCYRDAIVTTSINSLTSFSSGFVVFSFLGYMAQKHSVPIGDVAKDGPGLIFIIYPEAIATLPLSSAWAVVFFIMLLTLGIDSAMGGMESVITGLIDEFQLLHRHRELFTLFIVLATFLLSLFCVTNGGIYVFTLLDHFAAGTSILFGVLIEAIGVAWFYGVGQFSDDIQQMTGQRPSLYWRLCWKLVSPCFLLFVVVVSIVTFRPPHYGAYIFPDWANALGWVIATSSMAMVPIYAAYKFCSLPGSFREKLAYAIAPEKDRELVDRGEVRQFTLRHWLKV
# DAT S422A, sequence (Q01959 57-620 S422A limits assumed): as the sequence (Q01959 57-620 F326A limits assumed) above, with A270F, S366A counted along it
# DAT V152A, sequence (Q01959 57-620 V152A limits assumed): as the sequence (Q01959 57-620 F326A limits assumed) above, with V96A, A270F counted along it
# DAT WT, sequence (Q01959 57-620 limits assumed): as the sequence (Q01959 57-620 F326A limits assumed) above, with A270F counted along it
structure (smiles),measurement,setting,value
CCc1nn(CCCN2CCN(c3cccc(Cl)c3)CC2)c(=O)n1CCOc1ccccc1 [nefazodone],Kd,SERT [1],200 nM
same,mode of inhibition of SERT,SERT [2],non-competitive
COC(=O)[C@H]1[C@@H](OC(=O)c2ccccc2)C[C@@H]2CC[C@H]1N2C [cocaine],fold lower affinity for DAT than tesofensine,DAT [3],50 fold
N[C@@H]1CC[C@@H](c2ccc(Cl)c(Cl)c2)c2ccccc21 [dasotraline],IC50,DAT WT,2.43 nM
same,fold increase of IC50 (decrease of inhibitory potency) versus DAT WT,DAT F326A; F326A mutant versus WT,approximately 1500 fold
same,IC50,DAT F326A,3740 nM
same,IC50,DAT S422A,4.7 µM
same,fold increase of IC50 versus DAT WT,DAT S422A; S422A mutant versus WT,1900 fold
same,IC50,DAT [4]; read-out: reported IC50 on DAT,3 nM
same,IC50,NET; read-out: reported IC50 on NET,4 nM
same,IC50,SERT [5]; read-out: reported IC50 on SERT,15 nM
c1ccc2cc([C@]34CNC[C@H]3C4)ccc2c1 [centanafadine],IC50,DAT WT,116 nM
same,IC50,DAT F326A,2090 nM
same,IC50,DAT V152A,246 nM
same,change of IC50 versus DAT WT,DAT V152A; V152A mutant versus WT,nearly doubling
same,IC50,DAT [4]; read-out: IC50 of dopamine reuptake,38 nM
same,IC50,NET; read-out: IC50 of norepinephrine reuptake,6 nM
same,IC50,SERT [5]; read-out: IC50 of serotonin reuptake,83 nM
O=c1n(CCCN2CCN(c3cccc(Cl)c3)CC2)nc2ccccn12 [trazodone],affinity for DAT compared with nefazodone,DAT [6],markedly reduced
